Experiments:
Assay type in all cases: biochemical
[1] = biological target: T1, Caspase 3 (Homo sapiens, UniProt P42574); test: Irreversible inhibitor kinetic assay (progress curve), caspase-3, substrate Ac-DEVD-AMC; set-up: gift: Guy Salvesen's laboratory, Burnham Institute (La Jolla, Calif.); conditions: casp-3; duplicate, SD included
T1 sequence (P42574 29-175 limits assumed): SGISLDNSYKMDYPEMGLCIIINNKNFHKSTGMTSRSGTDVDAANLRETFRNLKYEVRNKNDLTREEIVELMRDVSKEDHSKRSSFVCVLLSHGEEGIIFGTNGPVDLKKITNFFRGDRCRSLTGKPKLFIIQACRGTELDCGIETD
T1 sequence (P42574 176-277 limits assumed): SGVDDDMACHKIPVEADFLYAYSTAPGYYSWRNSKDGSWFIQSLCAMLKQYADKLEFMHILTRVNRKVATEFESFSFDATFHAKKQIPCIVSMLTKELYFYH
Text: (§1) Caspases-3, -6, -7, -8, and -9 were provided by Guy Salvesen's laboratory at the Burnham Institute (La Jolla, Calif.). Caspase-1 was purchased from EMD Biosciences (San Diego, Calif.) and Caspase-2 was purchased from Biomol International (Plymouth Meeting, Pa.). Caspase substrates Ac-DEVD-AMC, Ac-VDVAD-AFC, and Ac-LEHD-AFC were purchased from EMD Biosciences (San Diego, Calif.) and Ac-VDVAD-AMC was purchased from Biomol International (Plymouth Meeting, Pa.). The proteolytic cleavage of N-acyl aminocoumarins by caspases was conducted in Dynatech Microfluor fluorescence 96-well microtiter plates, and readings were taken on a Molecular Devices Spectra Max Gemini XS instrument. The excitation wavelength was 370 nm and the emission wavelength was 455 nm for AMCA substrates, the excitation wavelength was 355 nm and the emission wavelength was 450 nm for peptidyl AMC substrates, and the excitation wavelength was 430 nm and the emission wavelength was 535 nm for peptidyl AFC substrates.
(§2) The kinact/Ki for inhibitors were determined under pseudo-first order conditions using the progress curve method (Eckici et al. (2006) J. Med. Chem., 49: 5728-5749; Bieth (1995) Meth. Enzymol., 248: 59-84). Assay wells contained a mixture of inhibitor and AMC or AFC substrate in buffer. Aliquots of caspase were added to each well to initiate the assay. Hydrolysis of the AMC or AFC substrate was monitored fluorometrically for 45 min. To determine the inhibition parameters, time points for which the control ([I]=0) was linear were used. For each inhibitor, a kobs was calculated for at least four different concentrations of inhibitors via a nonlinear regression of the data according to the equation P=(vi/kobs)[1−exp(−kobst) (where product formation=P, […], and the first-order rate constant=kobs). If kobs varied linearly with [I], then the association constant kass was determined by linear regression analysis using kobs=(kass[I])/(1+[S]/Km) where [S] is the concentration of the substrate. […] Inhibition was measured in duplicate and the average of is reported. […]

[2] = biological target: T2, caspase-5 (Homo sapiens, UniProt P51878); test: Irreversible inhibitor kinetic assay (progress curve), caspase-5, substrate Ac-WEHD-AMC; conditions: casp-5; duplicate, SD included
T2 sequence (P51878 137-327 limits assumed): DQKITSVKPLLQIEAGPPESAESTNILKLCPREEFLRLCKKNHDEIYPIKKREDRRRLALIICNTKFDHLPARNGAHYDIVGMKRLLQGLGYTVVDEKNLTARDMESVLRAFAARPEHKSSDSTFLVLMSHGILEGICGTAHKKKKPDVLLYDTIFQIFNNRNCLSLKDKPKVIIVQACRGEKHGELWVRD
T2 sequence (P51878 347-434 limits assumed): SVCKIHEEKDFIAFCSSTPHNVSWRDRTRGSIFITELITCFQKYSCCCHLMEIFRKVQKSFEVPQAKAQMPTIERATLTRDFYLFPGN
Text: as §1, §2

[3] = biological target: T3, caspase-2 (Homo sapiens, UniProt P42575); test: Irreversible inhibitor kinetic assay (progress curve), caspase-2, substrate Ac-VDVAD-AMC; conditions: casp-2; duplicate, SD included
T3 sequence (P42575 170-325 limits assumed): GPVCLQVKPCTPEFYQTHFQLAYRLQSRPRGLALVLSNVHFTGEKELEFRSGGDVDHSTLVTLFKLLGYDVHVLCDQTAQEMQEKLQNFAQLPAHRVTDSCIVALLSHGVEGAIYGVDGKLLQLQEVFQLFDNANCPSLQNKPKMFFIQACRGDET
T3 sequence (P42575 348-452 limits assumed): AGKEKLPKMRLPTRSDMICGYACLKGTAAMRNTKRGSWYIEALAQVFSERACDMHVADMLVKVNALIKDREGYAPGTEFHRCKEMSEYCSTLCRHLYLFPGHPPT
Text: as §1, §2

Structure (SMILES) | kinact/Ki [1] | kinact/Ki [2] | kass (kinact/Ki, footnote a) [3] [s^−1/M^−1]
C[C@@](NS(=O)(=O)Cc1ccccc1)(c1cn([C@@H](CC(=O)O)C(=O)COc2c(F)c(F)cc(F)c2F)nn1)C1CCCCC1 [MJL-001i] | 47,000 ± 1,400 s^−1/M^−1 | 2,250 ± 350 s^−1/M^−1 | 33.0 ± 0.5
C[C@@](NC(=O)CCCC(=O)O)(c1cn([C@@H](CC(=O)O)C(=O)COc2c(F)c(F)cc(F)c2F)nn1)C1CCCCC1 [MJL-002i] | 81,700 ± 6,900 s^−1/M^−1 | 16,500 ± 850 s^−1/M^−1 | 2.0 ± 0.1
C[C@@](NC(=O)Cc1ccccc1)(c1cn([C@@H](CC(=O)O)C(=O)COc2c(F)c(F)cc(F)c2F)nn1)C1CCCCC1 [MJL-003i] | 29,850 ± 850 s^−1/M^−1 | 3,300 ± 200 s^−1/M^−1 | 6.90 ± 0.3

— patent US8518942B2, “Caspase inhibitors and uses thereof” (Buck Institute for Research on Aging, priority 2008, dated 2013)
